Data set [1] can be described thus: Cytotoxicity against human HuH7-J20 cells expressing secreted alkaline phosphatase reporter gene assessed as cell viability at 10 uM incubated for 1 hr by WST-1 assay. Type of data set: cell-based. Particulars: huh-7, 1 h. On the technique in general: Reporter assays use an easily measured gene product as a stand-in for the process of interest.
The test system of data set [2] is Hepatitis C virus. Kind of data set: Antiviral activity against HCV JFH1 infected in human HuH7-J20 cells assessed as inhibition of viral life cycle by measuring secreted alkaline phosphatase level preincubated with cells for 1 hr followed by viral inoculation for 3 hrs measured at 72 hrs. Type of data set: functional, cell-based, Hepacivirus hominis. Particulars: for EC50: genotype 2a JFH-1, Huh-7.

Data set [3] is described as follows: Cytotoxicity against human HuH7-J20 cells expressing secreted alkaline phosphatase reporter gene assessed as cell viability incubated for 1 hr by WST-1 assay. Type of data set: cell-based, Huh-7.
Data set [4] relates to Hepatitis C virus. Briefly: Antiviral activity against HCV JFH1 infected in human HuH7-J20 cells assessed as inhibition of viral life cycle by measuring secreted alkaline phosphatase level preincubated with cells for 1 hr followed by viral inoculation for 3 hrs and fresh drug administration every 24 hrs at 1/10th of initial concentration for 48 hrs measured at 72 hrs. Type of data set: functional, cell-based, Hepacivirus hominis. The settings on record: genotype 2a JFH-1, Huh-7.

Data set [5] is described as follows: Cytotoxicity against human HuH7-J20 cells expressing secreted alkaline phosphatase reporter gene assessed as cell viability preincubated for 1 hr followed by fresh drug administration every 24 hrs at 1/10th of initial concentration for 48 hrs by WST-1 assay. Type of data set: cell-based, Huh-7.
A short description of data set [6]: Selectivity index, ratio of CC50 for human HuH7-J20 cells expressing secreted alkaline phosphatase reporter gene incubated for 1 hr to EC50 for HCV JFH1 infected in human HuH7-J20 cells preincubated with cells for 1 hr followed by viral inoculation for 3 hrs measured at 72 hrs. More on the design: species or system Huh-7.
Data set [7] in a line: Selectivity index, ratio of CC50 for human HuH7-J20 cells expressing secreted alkaline phosphatase reporter gene preincubated for 1 hr followed by fresh drug administration every 24 hrs for 48 hrs to EC50 for HCV JFH1 infected in human HuH7-J20 cells preincubated with cells for 1 hr followed by viral inoculation for 3 hrs and fresh drug administration every 24 hrs at 1/10th of initial concentration for 48 hrs measured at 72 hrs. More on the design: species or system Huh-7.

For data set [8], the system named is Hepatitis C virus. Briefly: Antiviral activity against HCV pseudotyped particles infected in human HuH7 cells assessed as reduction of viral entry preincubated with cells for 1 hr followed by viral inoculation for 3 hrs by luciferase reporter gene assay. Type of data set: functional, organism-based. Particulars: Hepacivirus hominis; Huh-7.
The subject of data set [9] is Hepatitis C virus. Briefly: Antiviral activity against HCV JFH1 sub genomic replicon infected in human HuH7 cells assessed as inhibition of viral RNA replication at 10 uM measured after 24 hrs by luciferase reporter gene assay. Type of data set: functional, Hepacivirus hominis. The settings on record: genotype 2a JFH-1, Huh-7, 24 h. In general terms: Replicon systems follow genome replication, usually without infectious particles.

The nature of data set [10]: Cytotoxicity against human HuH7 assessed as cell viability after 24 hrs by WST-1 assay. Type of data set: cell-based. Particulars: huh-7, 24 h. (Formazan colour is commonly taken as a measure of viable cells.)
In data set [11] the test system is Hepatitis C virus. Briefly: Antiviral activity against HCV JFH1 infected in human HuH7-J20 cells assessed as inhibition of viral life cycle by measuring secreted alkaline phosphatase level […] preincubated with cells for 1 hr followed by viral inoculation for 3 hrs measured at 72 hrs relative to control. Type of data set: functional. The settings on record: Hepacivirus hominis; genotype 2a JFH-1; Huh-7.

The subject of data set [12] is Hepatitis C virus. Kind of data set: Ratio of EC50 for HCV JFH1 infected in human HuH7-J20 cells preincubated with cells for 1 hr followed by viral inoculation for 3 hrs measured at 72 hrs to EC50 for HCV JFH1 infected in human HuH7-J20 cells preincubated with cells for 1 hr followed by viral inoculation for 3 hrs and fresh drug administration every 24 hrs at 1/10th of initial concentration for 48 hrs measured at 72 hrs. Type of data set: functional, Hepacivirus hominis, genotype 2a JFH-1, Huh-7.

Consider 29 compounds from ChEMBL document CHEMBL3627618, “Rethinking the old antiviral drug moroxydine: Discovery of novel analogues as anti-hepatitis C virus (HCV) agents” (Bioorg Med Chem Lett, 2015).

Active and inactive are the calls of the source. No cut-off for these calls is given here.

For the compound `CC(C)(C)OC(=O)/N=C(\NCc1ccccc1)NC(=O)N1CCOCC1`, the Activity result in [1] is listed as “Non-toxic”.

Usually EC50 stands for the concentration at which the effect is half-maximal. A word on the CC50: it is the concentration that lowers cell viability or growth by half. The term inhibition denotes the percentage by which the read-out fell short of the control. Take `Cl.N=C(NC(=O)N1CCN(c2ccccc2)CC1)Nc1ccc(Cl)cc1`: the EC50 in [2] is 11.2 µM; in data set [4], 1.3 µM. Moreover, the CC50 at 1 h in data set [3] was above 30 µM. Further, the CC50 at 48 h in data set [5] worked out at 39.7 µM. Besides, the “Ratio CC50/EC50” value in data set [6] is reported as above 2.68; in data set [7], 30.4. Besides, the result in [8] was inactive. Besides, in data set [9], the inhibition at 10 µM is at most 50%. In data set [10], the Activity entry is “Non-toxic”.

With `Cl.N=C(N)NC(=O)NCc1ccccc1`, the EC50 worked out at 52 µM in data set [2] and 35.3 µM in [4]. In addition, the CC50 at 1 h in data set [3] stood at 324 µM. The CC50 at 48 h in data set [5] came to 325 µM. Also, the “Ratio CC50/EC50” value in data set [6] turned out to be 6.23; in data set [7], 9.19.

Consider `Cl.N=C(N)NC(=O)NCCCCN`, for which the Activity result in [1] is “Non-toxic”.

`Cl.N=C(NCc1ccccc1)NC(=O)N1CCCC1`: in data set [1], the Activity result is “Non-toxic”. In addition, in data set [8], the result was inactive.

As for `Cl.N=C(NCc1ccccc1)NC(=O)N1CCN(c2ccc(F)cc2)CC1`, in data set [1], the Activity entry was “Non-toxic”. Also, in data set [8], the result was inactive.

Take `Cl.N=C(NC(=O)N1CCN(c2ccc([N+](=O)[O-])cc2)CC1)Nc1ccccc1`: the Activity result in [1] is given as “Non-toxic”. Moreover, the result in data set [8] was inactive.

`Cc1ccc(N2CCN(C(=O)NC(=N)Nc3ccccc3)CC2)cc1.Cl`: the EC50 in data set [2] came out at 9.35 µM; in data set [4] it was 4.7 µM. Also, in data set [3], the CC50 at 1 h is 26.4 µM. In addition, the CC50 at 48 h in [5] is 21 µM. The “Ratio CC50/EC50” value in [6] is on record as 2.82; in data set [7], 4.4. The outcome in data set [8] was inactive.

Consider `Cl.N=C(NC(=O)N1CCN(c2ccccc2)CC1)Nc1ccccc1`, for which the EC50 in [2] amounted to 59.5 µM; in data set [4] it was 8.7 µM. The CC50 at 1 h in data set [3] is above 30 µM. In data set [5], the CC50 at 48 h was above 30 µM. The results for the “Ratio CC50/EC50” value in data set [6] and in [7] were 0.5 and above 3.4, respectively. Further, the outcome in [8] was inactive.

`N=C(N)NC(=N)N1CCN(c2ccccc2)CC1`: in data set [11], the inhibition result was “inactive”.

Turning to `Cl.N=C(NC(=O)N1CCN(c2ccc([N+](=O)[O-])cc2)CC1)Nc1ccc(Cl)cc1`, the Activity result in [1] is reported as “Non-toxic”. For the same compound, the outcome in data set [8] was inactive.

Take `Cl.N=C(NC(=O)N1CCN(c2ccc(Cl)cc2)CC1)Nc1ccccc1`: in data set [1], the Activity entry was “Non-toxic”. Also, in data set [8], the result was inactive.

As for `Cl.N=C(NCc1ccccc1)NC(=O)N1CCN(c2ccccc2)CC1`, the Activity entry in [1] is reported as “Non-toxic”. Further, the result in [8] was inactive.

Turning to `N=C(N)NC(=N)Nc1ccccc1`, the inhibition entry in data set [11] was “inactive”.

For the compound `Cl.N=C(N)NC(=O)N1CCOCC1`, the Activity result in data set [1] was “Non-toxic”.

In the case of `Cl.N=C(NC(=O)N1CCN(c2ccc(C34CC5CC(CC(C5)C3)C4)cc2)CC1)Nc1ccc(Cl)cc1`, the results for the EC50 in data set [2] and in [4] were 9.8 µM and 13.9 µM, respectively. Moreover, the CC50 at 1 h in data set [3] was determined as 73 µM. In [5], the CC50 at 48 h was 77 µM. In addition, the entries for the “Ratio CC50/EC50” value in [6] and in data set [7] were 7.45 and 5.54, respectively. Moreover, the outcome in data set [8] was inactive. Also, in [10], the Activity entry was “Non-toxic”.

For the compound `N=C(N)NC(=N)NCc1ccccc1`, the inhibition result in data set [11] was “inactive”.

Consider `NC(=O)c1ncn([C@@H]2O[C@H](CO)[C@@H](O)[C@H]2O)n1` [RIBAVIRIN], for which the results for the EC50 in data set [2] and in [4] were 30.4 µM and 33.5 µM, respectively. In data set [3], the CC50 at 1 h was above 30 µM. For the same compound, in data set [5], the CC50 at 48 h turned out to be 30.5 µM. Further, the results for the “Ratio CC50/EC50” value in data set [6] and in [7] were above 1 and 0.91, respectively.

Turning to `CC(C)(C)OC(=O)NC(=N)NC(=O)NCc1ccccc1`, the EC50 was 21.9 µM in data set [2] and 6.17 µM in data set [4]. Also, the CC50 at 1 h in data set [3] is 92.9 µM. Further, the CC50 at 48 h in data set [5] was 49.3 µM. The “Ratio CC50/EC50” value in data set [6] was determined as 4.25; in [7] it was 7.99. Besides, in data set [12], the “Ratio EC50” value is listed as 3. For the same compound, the Activity result in data set [10] was “Non-toxic”.

Consider `Cc1ccc(N2CCN(C(=O)NC(=N)Nc3ccc(Cl)cc3)CC2)cc1.Cl`, for which the Activity result in data set [1] is “Non-toxic”. Further, in data set [8], the outcome was inactive.

For `CC(C)(C)OC(=O)/N=C(\NCc1ccccc1)NC(=O)N1CCN(c2ccccc2)CC1`, the Activity result in [1] is recorded as “Non-toxic”.

As to `CCOC(=O)CNC(=O)NC(=N)N.Cl`, the Activity entry in data set [1] is recorded as “Non-toxic”.

As to `Cl.N=C(NCc1ccccc1)NC(=O)N1CCOCC1`, the Activity result in data set [1] is on record as “Non-toxic”. The result in data set [8] was inactive.

As to `N=C(N)NC(=N)Nc1ccc(F)cc1`, in data set [11], the inhibition entry is “inactive”.

Turning to `C=CCNC(=O)NC(=N)NCc1ccccc1.Cl`, in data set [1], the Activity entry is given as “Non-toxic”. Further, in [8], the result was inactive.

For `CCOC(=O)CNC(=O)NC(=N)NC(=O)OC(C)(C)C`, the Activity result in data set [1] is “Non-toxic”.

`Cl.N=C(NC(=O)N1CCN(c2cc(Cl)cc(Cl)c2)CC1)Nc1ccc(Cl)cc1`: the results for the EC50 in data set [2] and in data set [4] were 10.4 µM and 1.69 µM, respectively. Further, the CC50 at 1 h in data set [3] was 63 µM. The CC50 at 48 h in data set [5] was determined as 34.2 µM. The “Ratio CC50/EC50” value was found to be 6.06 in data set [6] and 20.2 in data set [7]. Further, the result in [8] was inactive. Moreover, the Activity entry in data set [10] is listed as “Non-toxic”.

As to `N=C(N)NC(=N)N1CCOCC1`, in data set [2] (Hepacivirus hominis, genotype 2a JFH-1, Huh-7), the inhibition result is “inactive”.

`Cl.N=C(NCc1ccccc1)NC(=O)N1CCN(c2ccc(Cl)cc2)CC1`: the EC50 in [2] was 45.7 µM; in data set [4], 2.41 µM. For the same compound, in data set [3], the CC50 at 1 h is 64 µM. Also, the CC50 at 48 h in data set [5] was found to be 34.7 µM. The “Ratio CC50/EC50” value in data set [6] is listed as 1.4; in [7] it was 14.4. Besides, in data set [8], the result was inactive. Also, the inhibition at 10 µM in data set [9] was at most 50%. In addition, the Activity result in data set [10] is on record as “Non-toxic”.
